Measurements reported in PMC11211491, “Design of a covalent protein-protein interaction inhibitor of SRPKs to suppress angiogenesis and invasion of cancer cells” (Communications Chemistry, 2024).
Square brackets hold non-standard residues; d marks the D form. Peptide text beside a SMILES is read from it. * marks the point of attachment. Benzoyl(4-SO2F) = O=C(c1ccc(S(=O)(=O)F)cc1)*; Dap = NC[C@H](N)C(=O)O

Key:
A549 = test: Cell viability assay (MTT); format: cell-based, human; conditions: A549, up to 100 μM, 24 h
Description: (§1) Cells (6 × 10^3 per well) were seeded into a 96-well plate. After overnight incubation, cells were treated with different concentrations of C-DBS for 24 h. The viability of the cells was determined using 3-(4,5-dimethylthiazol-2-yl)-2,5-diphenyltetrazolium bromide (MTT) (Roche). Absorption at 570 nm was measured using a microplate reader (BMG, CLARIOstar) according to the manufacturer’s instructions.

HEK-293 = test: Cell viability assay (MTT); format: cell-based, human; conditions: HEK-293, up to 100 μM, 24 h
Description: as §1

HeLa = test: Cell viability assay (MTT); format: cell-based, human; conditions: up to 100 μM, 24 h
Description: as §1

MDA-MB-231 = test: Cell viability assay (MTT); format: cell-based, human; conditions: MDA-MB-231, up to 100 μM, 24 h
Description: as §1

A549 cells = test: Cellular uptake and endo/lysosomal escape (confocal microscopy); format: cell-based, human
Description: A549 cells (20 × 10^4 per well) were seeded into confocal dishes (SPL Life Sciences) and incubated for adhesion overnight at 37 °C in 5% CO2. 6-FAM-labeled C-DSB or control peptide was diluted to Opti-MEM medium (Gibco) and added to the cells for 24-h incubation. C-DBS was washed with PBS containing 20 U/mL heparin (Sigma-Aldrich) and stained with 40 μM Hoechst 33342 (Life Technologies) and 5 μg/mL Wheat Germ Agglutinin Alexa Fluor 647 Conjugate (Life Technologies) for 20 min. After removing excess dye, cell images were captured by the Leica TCS SP8 Confocal Microscope System. To detect the endo/lysosomal escape of C-DBS, 50 nM Lysotracker Red (Life Technologies) was used to stain the endo/lysosomes. Fluorescence intensity profiles of the region of interest (ROI) were analyzed using ImageJ software.

SRPK1ΔNS3 = conditions: quoted for comparison, earlier work on DBS1; read-out: Kd of DBS1 for SRPK1; cited from earlier work
From the text: Because DBS1 targets the docking groove of SRPK, we tested the specificity of C-DBS toward the same binding site. We performed fluorescence polarization (FP) assay to examine the direct noncovalent interaction between C-DBS and SRPK1ΔNS3, as well as the docking groove mutant SRPK1ΔNS3_DM that contains alanine substitutions at four docking groove residues—D548, D564, E571, and K615—that are essential for the binding and phosphorylation of the substrate (Fig. 2a)[11],[12],[36].

Molecule | cytotoxicity (MTT) (A549) | cytotoxicity (MTT) (HEK-293) | cytotoxicity (MTT) (HeLa) | cytotoxicity (MTT) (MDA-MB-231) | cellular uptake (A549 cells; A549, 10 μM FAM-labeled peptide, 24 h, Opti-MEM, confocal fluorescence microscopy) | endo/lysosomal trapping after internalization (A549 cells; A549, LysoTracker Red, 1.5 or 24 h incubation) | Kd (SRPK1ΔNS3)
CC(=O)N[C@@H](CCCNC(=N)N)C(=O)N[C@@H](CCC(=O)O)C(=O)N[C@@H](CCCNC(=N)N)C(=O)N[C@@H](C)C(=O)N[C@@H](CCCNC(=N)N)C(=O)N[C@H](C(=O)N[C@@H](CCCNC(=N)N)C(=O)N[C@@H](CCCNC(=N)N)C(=O)N[C@@H](CNC(=O)c1ccc(S(=O)(=O)F)cc1)C(=O)N[C@@H](CCCNC(=N)N)C(=O)N[C@@H](C)C(=O)N[C@@H](CCCNC(=N)N)C(=O)N[C@H](C(=O)N[C@@H](CCCNC(=N)N)C(=O)N[C@@H](CCC(=O)O)C(=O)N[C@@H](CCCNC(=N)N)C(=O)N[C@@H](C)C(=O)N[C@@H](CCCNC(=N)N)C(=O)N[C@H](C(=O)N[C@@H](CCCNC(=N)N)C(N)=O)[C@@H](C)O)[C@@H](C)O)[C@@H](C)O [C-DBS] (Ac-RERARTRR[Dap](Benzoyl(4-SO2F))RARTRERARTR-NH2) | no cytotoxicity | no cytotoxicity | no cytotoxicity | no cytotoxicity | readily internalized by the A549 cells | not trapped in endolysosomal compartments after internalization | 
RERARTRRE^9RARTRERARTR [DBS1] |  |  |  |  |  |  | 3.2 ± 1.5 µM
